The assay has as its target T1, IRE1α (Homo sapiens, UniProt O75460).
T1 construct: gene ERN1
Briefly: ADP-Glo luminescent kinase assay with purified IRE1. It counts as biochemical.

T1 sequence (O75460 19-977): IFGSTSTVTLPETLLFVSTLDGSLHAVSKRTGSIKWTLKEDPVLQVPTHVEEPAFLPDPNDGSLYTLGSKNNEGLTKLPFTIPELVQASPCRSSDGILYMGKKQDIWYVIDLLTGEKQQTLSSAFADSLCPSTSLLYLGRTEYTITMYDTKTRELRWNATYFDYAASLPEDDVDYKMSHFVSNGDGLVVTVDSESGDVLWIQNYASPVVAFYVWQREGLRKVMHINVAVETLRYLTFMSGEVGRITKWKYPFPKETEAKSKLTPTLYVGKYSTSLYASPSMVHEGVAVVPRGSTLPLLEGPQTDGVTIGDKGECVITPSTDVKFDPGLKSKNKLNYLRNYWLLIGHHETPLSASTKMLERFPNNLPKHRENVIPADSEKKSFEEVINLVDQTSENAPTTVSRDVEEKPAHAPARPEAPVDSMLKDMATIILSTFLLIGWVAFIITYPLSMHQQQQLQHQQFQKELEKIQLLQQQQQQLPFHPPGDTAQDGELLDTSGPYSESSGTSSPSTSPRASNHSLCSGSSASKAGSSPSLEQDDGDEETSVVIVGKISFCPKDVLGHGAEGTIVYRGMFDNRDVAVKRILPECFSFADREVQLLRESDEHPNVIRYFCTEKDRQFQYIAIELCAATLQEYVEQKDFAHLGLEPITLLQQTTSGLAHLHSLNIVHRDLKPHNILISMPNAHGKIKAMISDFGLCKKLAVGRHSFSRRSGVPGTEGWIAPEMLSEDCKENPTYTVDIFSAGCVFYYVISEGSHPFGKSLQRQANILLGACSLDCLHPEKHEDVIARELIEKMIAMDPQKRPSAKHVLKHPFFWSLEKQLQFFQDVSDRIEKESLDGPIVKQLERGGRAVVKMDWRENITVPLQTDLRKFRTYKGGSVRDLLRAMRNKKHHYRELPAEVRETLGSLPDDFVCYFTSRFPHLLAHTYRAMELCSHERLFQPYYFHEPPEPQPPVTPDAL

As to `Cc1cc(=O)oc2c(C=O)c(O)ccc12` [4µ8C, 7-Hydroxy-4-methyl-2-oxo-2H-chromene-8-carbaldehyde], inhibition was half-maximal at 31.2 µM (IC50).
